[PNA-N] = peptide nucleic acid monomer (N: the base)
What was measured:
[1] = tested on: CFTR function in the nasal epithelium; assay: Nasal potential difference (NPD) in CF mice after intranasal NPs; type: in vivo, mouse; conditions: F508del CF mice, intranasal PBAE/PLGA/MPG NPs with PNA/donor DNA
Protocol: FIG. 4 is a dot plot showing functional correction of CFTR with modified NPs in vivo. Mice were treated by intranasal administration with NPs. Nasal potential difference measurements were evaluated before and after NP treatments. The response to a 0Cl+amiloride+forksolin perfusate after NP treatment was compared to the response prior to treatment. Pre- and post-treatment changes in NPD were compared using paired t tests for each mouse. Each mouse is represented with an individual data point; in addition, the mean is shown with a horizontal line, surround by error bars showing the standard error of the mean. In the last panel, nasal potential difference changes in wild type mice are shown for comparison. […]
To determine if gamma tcPNAs were more efficient editing agents than classic PNA in vivo, CF mice were treated intranasally with PBAE/PLGA/MPG NPs containing mCF-PNA/DNA or γmCF-PNA-h/DNA on days 1, 3, 6, and 9. Subsequently, CF mice were assessed for CFTR function in the nasal epithelium by measuring the nasal potential difference (NPD), a non-invasive assay used to detect cAMP-stimulated chloride transport in vivo. […] NPD is assessed in all mice prior to treatment with NPs and reassessed after treatment such that alterations in this measure can be used as a surrogate of restored CFTR function.

[2] = Zeta potential and hydrodynamic diameter of formulated NPs by dynamic light scattering; type: physicochemical; conditions: NPs containing PNA/donor DNA, PBS buffer, n = 3; for Z Av Diameter: dynamic light scattering
Protocol: Blank NPs containing no PNA and a mismatch donor DNA as a control were prepared as a control. The mismatched donor DNA was purposely added into blank NPs because addition of donor DNA helps to produce a similar surface charge on the control NPs as on the test NPs encapsulated with PNA/donor DNA combinations. […] All NP in the diameters were in the range of 200-350 nm, as measured by dynamic light scattering (Table 1), consistent with previous measurements (McNeer, et al., Nat Commun 6, 6952 (2015), Fields, et al., Adv Healthc Mater 4, 361-366 (2015), Fields, et al., J Control Release 164, 41-48 (2012)). PNA/DNA-loaded NPs were cationic (Fields, et al., Adv Healthc Mater 4, 361-366 (2015), Fields, et al., J Control Release 164, 41-48 (2012)) for PBAE/PLGA/MPG NPs (Table 1).

[3] = mouse, in vivo
Protocol: To collect the lungs for histopathology, a midline incision from sternum to diaphragm was performed and, to remove blood from the pulmonary circulation, PBS+heparin was perfused via the right ventricle using a 20 g needle. Lungs were inflated with 0.5% low melt agarose at constant pressure, then removed from the chest and placed in fixative. Paraffin embedded tissues were stained with hemotoxylin and eosin stain for imaging.
To investigate whether NPs could effectively deliver the gene editing reagents to the lung TAMRA-conjugated mouse specific PNA (γmCF PNA-h) and mouse donor DNA into PBAE/PLGA/MPG NPs were formulated. After intranasal administration of γmCF PNA-h/DNA NPs into CF mice, the lungs were harvested and PNA uptake was assessed by fluorescence microscopy.

H-KKK-JTTTTJJJ-OOO-CCCTTTTCAAGGTGAGTAG-KKK-NH2 [mCF PNA] (NTTTTNNNCCCTTTTCAAGGTGAGTAG; listed as DNA, chemistry not fully specified)
treated mice showing response to cyclic AMP stimulation (cyclic AMP activated Cl− conductance) in NPD [1]: 50% | Zeta Potential [2]: 46.17 mV | Z Av Diameter [2]: 317.8 nm

H-KKK-JTTTTJJJ-OOO-CCCTTTTCAAGGTGAGTAG-KKK-NH2 [γmCF PNA-h] (NTTTTNNNCCCTTTTCAAGGTGAGTAG; all [PNA-N], the base at N not given here; lysine tripeptides at both ends, OOO linker, some gamma-modified PNA monomers, further chemistry not fully specified) [tail clamp PNA targeting mouse CFTR gene with MPγ monomers in Hoogsteen domain]
treated mice showing response to cyclic AMP stimulation (cyclic AMP activated Cl− conductance) in NPD [1]: 79% | histology of nasal epithelia / respiratory tract [3]: No significant differences in the histology of the nasal epithelia | Zeta Potential [2]: 36.17 mV | Z Av Diameter [2]: 349.1 nm
